Data: ChEMBL document CHEMBL5726780, “Fused tricyclic compounds as Raf kinase inhibitors” (2018)

Assay: Time-Resolved Fluorescence Energy Transfer Assay: Compounds disclosed herein were tested against B-Raf (V600E) (PV3849, from Invitrogen) or C-Raf (Y340D/Y341D) (PV3805, from Invitrogen) in a time-resolved fluorescence energy transfer assay. The assay was carried out in reactions (10 μL) containing 0.0625 nM B-Raf or 0.5 nM C-Raf, 25 mM Tris pH7.4, 10 mM MgCl2, 0.5 mM EGTA, 0.5 mM […], 5 mM beta-glycerophosphate, 0.01% Triton X-100, 2.5 mM DTT, 0.1% BSA, 0.1 mM ATP, 13.7 nM GST-tagged MEK1 (Full-length protein with K97R mutation, recombinant protein purified from bacterial expression system) and 0-5 μM compounds disclosed herein (final concentration of 1% DMSO). The enzyme was incubated with the compounds at room temperature for 60 minutes and the reactions were initiated by the addition of ATP and GST-MEK1. After incubating at room temperature for 60 minutes, an equal volume of stop buffer containing 25 mM Tris pH7.4, 400 mM KF, 50 mM EDTA, 0.01% BSA, 0.01% Triton X-100, 1 test of Eu3+ Cryptate-conjugated rabbit polyclonal antibody anti-Phospho MEK1/2 (Ser217/221) and 1 test of d2-conjugated mouse monoclonal antibody anti-glutathione S-transferase was added to stop the reactions. Plates were sealed and incubated at room temperature for 2 hours, and then the TR-FRET signals were read on BMG PHERAstar FS instrument.

Row | Structure (SMILES) | IC50 [nM]
1 | O=C1CCc2c(Oc3ccc4c(c3)C3C(O4)C3c3nc4ccc(Br)cc4[nH]3)ccnc2N1 (centres undefined) | 81
2 | O=C1CCc2c(Oc3ccc4c(c3)C3C(C4)C3C(=O)Nc3ccccc3S)ccnc2N1 (centres undefined) | 5.5
3 | CNC(=O)Nc1cc(Oc2ccc3c(c2)C2C(O3)C2c2nc3ccc(C(F)(F)F)cc3[nH]2)ccn1 (centres undefined) | 6.5
4 | O=C1CCc2c(Oc3ccc4c(c3)C3C(O4)C3C(=O)OCC(=O)c3ccccc3)ccnc2N1 (centres undefined) | < 0.25
